Test results published in US11701354B2, “Pyrazolo[3,4-b]pyrazine derivatives as SHP2 phosphatase inhibitors” (Relay Therapeutics, Inc., priority 2017, dated 2023).
pIC50: −log10 of the molar value.

These compounds were tested against SHP2 (Homo sapiens (Human), UniProt Q06124) (assay: SHP2 Allosteric Inhibition Assay (DiFMUP prompt fluorescence)). Details: 0.25 nM SHP2 activated with 0.5 μM peptide IRS1_pY1172(dPEG8)pY1222; substrate DiFMUP 100 μM.
Format: biochemical
Excerpt: SHP2 Allosteric Inhibition Assay.
SHP2 is allosterically activated through binding of bis-tyrosyl-phorphorylated peptides to its Src Homology 2 (SH2) domains. The latter activation step leads to the release of the auto-inhibitory interface of SHP2, which in turn renders the SHP2 protein tyrosine phosphatase (PTP) active and available for substrate recognition and reaction catalysis. The catalytic activity of SHP2 was monitored using the surrogate substrate DiFMUP in a prompt fluorescence assay format.
More specifically, the phosphatase reactions were performed at room temperature in 96-well black polystyrene plate, flat bottom, low flange, non-binding surface (Corning, Cat #3575) using a final reaction volume of 50 μl and the following assay buffer conditions: 60 mM HEPES, pH 7.2, 75 mM NaCl, 75 mM KCl, 1 mM EDTA 0.005% Brij-35, 5 mM DTT.
The inhibition of SHP2 by compounds of the disclosure (concentrations varying from 0.003-100 μM) was monitored using an assay in which 0.25 nM of SHP2 was incubated with of 0.5 μM of peptide IRSl_pY1172(dPEG8)pY1222 (sequence: H2N-LN(pY)IDLDLV(dPEG8)LST(pY)ASINFQK-amide). After 30-60 minutes incubation at 25° C. the surrogate substrate DiFMUP (Invitrogen, cat #D6567, 100 μM final) was added to the reaction and the conversion of DiFMUP to 6,8-difluoro-7-hydroxyl-4-methylcoumarin (DiFMU) was monitored continuously for 10 minutes with excitation at 355 nm and emission at 460 nm using a microplate reader (PolarStar, BMG). The inhibitor dose response curves were analyzed using normalized IC50 regression curve fitting with control based normalization.
Biochemical assay results for compounds of the disclosure are shown in examples and Table 1. In Table 1, A means an IC50 of less than 1 μM: B means an IC50 equal to 1 μM but less than 10 μM; and C means an IC50 of 10 μM or more.

Row | Compound | pIC50
1 | CN(c1cnc2c(-c3cccc(Cl)c3F)n[nH]c2n1)[C@H]1CCC[C@H]1N (mixture of isomers) [Example 1] | 5.00 to 6.00
2 | N[C@@H]1CCCC[C@H]1Nc1cnc2c(-c3cccc(Cl)c3F)n[nH]c2n1 (mixture of isomers) [Example 5] | 5.00 to 6.00
3 | N[C@@H]1CCCC[C@@H]1Nc1cnc2c(-c3cccc(Cl)c3F)n[nH]c2n1 (single isomer, unassigned) [Example 7] | 5.00 to 6.00
4 | CN(c1cnc2c(N3CCCc4ncccc43)n[nH]c2n1)[C@@H]1CCC[C@@H]1N (single isomer, unassigned) [Example 8] | 5.00 to 6.00
5 | CN(c1cnc2c(N3CCCc4ncccc43)n[nH]c2n1)[C@@H]1COC[C@@H]1N (single isomer, unassigned) [Example 10] | ≤ 5.00
6 | CN(c1cnc2c(N3CCCc4ncccc43)n[nH]c2n1)[C@H]1COC[C@H]1N (single isomer, unassigned) [Example 11] | ≤ 5.00
7 | NC[C@H]1CCCC[C@H]1Nc1cnc2c(-c3cccc(Cl)c3F)n[nH]c2n1 (single isomer, unassigned) [Example 17] | 5.00 to 6.00
8 | NC[C@@H]1CCCC[C@H]1Nc1cnc2c(-c3cccc(Cl)c3F)n[nH]c2n1 (single isomer, unassigned) [Example 18] | 5.00 to 6.00
9 | CN(c1cnc2c(-c3cccc(Cl)c3F)n[nH]c2n1)[C@H]1CCCC[C@@H]1N (single isomer, unassigned) [Example 23] | 5.00 to 6.00
10 | CN(C[C@@H]1CCC[C@H]1N)c1cnc2c(N3CCCc4ncccc43)n[nH]c2n1 (single isomer, unassigned) [Example 31] | ≤ 5.00
11 | CN(C[C@H]1CCC[C@@H]1N)c1cnc2c(N3CCCc4ncccc43)n[nH]c2n1 (single isomer, unassigned) [Example 32] | ≤ 5.00
12 | CN(c1cnc2c(N3CCCc4ncccc43)n[nH]c2n1)[C@@H]1CCCC[C@@H]1N (single isomer, unassigned) [Example 34] | 5.00 to 6.00
13 | N[C@H]1CCCC[C@@H]1Nc1cnc2c(-c3cccc(Cl)c3F)n[nH]c2n1 [Example 6] | 5.00 to 6.00
14 | CN(c1cnc2c(N3CCCc4ncccc43)n[nH]c2n1)[C@H]1CCC[C@H]1N [Example 9] | ≤ 5.00
15 | CN(c1cnc2c(N3CCCc4ncccc43)n[nH]c2n1)[C@H]1CCCC[C@H]1N [Example 33] | ≤ 5.00
16 | CN(c1cnc2c(N3CCCc4ncccc43)n[nH]c2n1)[C@@H]1COCC[C@@H]1N [Example 35] | ≤ 5.00
17 | CN(c1cnc2c(N3CCCc4ncccc43)n[nH]c2n1)[C@@H]1CCOC[C@@H]1N [Example 36] | 5.00 to 6.00
18 | CN(c1cnc2c(N3CCCc4ncccc43)n[nH]c2n1)[C@H]1CCOC[C@H]1N [Example 37] | ≤ 5.00
19 | CN(c1cnc2c(-c3cccc(Cl)c3F)n[nH]c2n1)[C@@H]1CCCC[C@@H]1CN [Example 41] | > 6.00
20 | CN(c1cnc2c(Sc3ccccc3Cl)n[nH]c2n1)[C@@H]1CCCC[C@@H]1N [Example 42] | > 6.00
21 | CN(c1cnc2c(Sc3ccnc4[nH]ccc34)n[nH]c2n1)[C@@H]1CCCC[C@@H]1N [Example 43] | > 6.00
22 | CN(c1cnc2c(Oc3ccnc(Cl)c3Cl)n[nH]c2n1)[C@H]1CCCC[C@H]1N [Example 44] | 5.00 to 6.00
23 | CN(c1cnc2c(Oc3ccnc(Cl)c3Cl)n[nH]c2n1)[C@@H]1CCCC[C@@H]1N [Example 45] | > 6.00
24 | CN(c1cnc2c(N3CCc4c(C(N)=O)cccc43)n[nH]c2n1)[C@@H]1CCCC[C@@H]1N [Example 46] | > 6.00

Other lines, results leading:

Row | pIC50 | Compound
25 | > 6.00 | NC[C@H]1CCCC[C@H]1Nc1cnc2c(-c3cccc(Cl)c3F)n[nH]c2n1 (mixture of isomers) [Example 13]
26 | > 6.00 | NC[C@H]1CCCC[C@@H]1Nc1cnc2c(-c3cccc(Cl)c3F)n[nH]c2n1 (mixture of isomers) [Example 14]
27 | > 6.00 | CN(c1cnc2c(-c3cccc(Cl)c3F)n[nH]c2n1)[C@H]1CCCC[C@@H]1N (mixture of isomers) [Example 19]
28 | > 6.00 | CN(c1cnc2c(-c3cccc(Cl)c3F)n[nH]c2n1)[C@H]1CCCC[C@H]1N (mixture of isomers) [Example 20]
29 | > 6.00 | NC[C@@H]1CCCC[C@@H]1Nc1cnc2c(-c3cccc(Cl)c3F)n[nH]c2n1 (single isomer, unassigned) [Example 15]
30 | > 6.00 | CN(c1cnc2c(-c3cccc(Cl)c3F)n[nH]c2n1)[C@@H]1CCCC[C@H]1N (single isomer, unassigned) [Example 24]
31 | > 6.00 | CN(c1cnc2c(-c3cccc(Cl)c3F)n[nH]c2n1)[C@@H]1CCC[C@@H]1CN (single isomer, unassigned) [Example 26]
32 | > 6.00 | CN(c1cnc2c(-c3cccc(Cl)c3F)n[nH]c2n1)[C@H]1CCC[C@@H]1CN (single isomer, unassigned) [Example 27]
33 | > 6.00 | CN(c1cnc2c(-c3cccc(Cl)c3F)n[nH]c2n1)[C@H]1CCC[C@H]1CN (single isomer, unassigned) [Example 28]
34 | > 6.00 | CN(c1cnc2c(-c3cccc(Cl)c3F)n[nH]c2n1)[C@@H]1CCC[C@H]1CN (single isomer, unassigned) [Example 29]
35 | > 6.00 | CN(c1cnc2c(-c3cccc(Cl)c3F)n[nH]c2n1)[C@@H]1CCC[C@H]1N [Example 2]
36 | > 6.00 | CN(c1cnc2c(-c3cccc(Cl)c3F)n[nH]c2n1)[C@H]1CCC[C@@H]1N [Example 3]
37 | > 6.00 | CN(c1cnc2c(-c3cccc(Cl)c3F)n[nH]c2n1)[C@@H]1CCC[C@@H]1N [Example 4]
38 | > 6.00 | CN(c1cnc2c(-c3cccc(Cl)c3F)n[nH]c2n1)[C@@H]1CCCC[C@@H]1N [Example 21]
39 | > 6.00 | CN(C[C@H]1CC[C@H](N)C1)c1cnc2c(-c3cccc(Cl)c3F)n[nH]c2n1 [Example 25]
40 | > 6.00 | CN(c1cnc2c(-c3ccnc(Cl)c3F)n[nH]c2n1)[C@@H]1CCCC[C@@H]1N [Example 30]
41 | > 6.00 | CN(c1cnc2c(-c3cccc(Cl)c3F)n[nH]c2n1)[C@@H]1CCCC[C@H]1CN [Example 38]
42 | > 6.00 | CN(c1cnc2c(-c3cccc(Cl)c3F)n[nH]c2n1)[C@H]1CCCC[C@H]1CN [Example 39]
43 | > 6.00 | CN(c1cnc2c(-c3cccc(Cl)c3F)n[nH]c2n1)[C@H]1CCCC[C@@H]1CN [Example 40]
